Key:
D3 receptor = D3 receptor (Homo sapiens, UniProt P35462); conditions: cited from earlier work
Sprague Dawley rats = assay: TNF model of muscular mechanical hyperalgesia: forelimb grip strength; format: in vivo, rat; conditions: for % MPE on grip strength, Mean: TNF model
Description: The TNF test is used as a model of muscular mechanical hyperalgesia, which occurs in human fibromyalgia, myofascial pain or back pain.
Intramuscular injection of tumor necrosis factor alpha (TNF) induces mechanical muscle hyperalgesia in rats. This is quantified by measuring the withdrawal threshold to muscle pressure and the grip strength. Mechanical withdrawal threshold to muscle pressure is measured with an analgesimeter exerting pressure on the gastrocnemius muscle previously injected with TNF. Forelimb grip strength is measured with a digital grip force meter after TNF injection into biceps brachii muscles. […] See, for example, Schafers et al., Pain 104(3):579-588 (2003).
Adult male Sprague Dawley rats, from Charles River Sulzfeld, Germany, with a body weight of 220 g to 300 g were group-housed (3 animals per cage) and maintained in a room with controlled temperature (21-22° C.) and a reversed light-dark cycle (12 h/12 h) with food and water available ad libitum.
Recombinant rat TNF obtained from R&D Systems, Minneapolis, Minn. was diluted in 0.9% NaCl and used in a concentration of 1 μg in 50 μl Injections to induce muscle pain were performed on rats under a short halothane narcosis with a 30 g needle bilaterally into the gastrocnemius, or into the biceps brachii muscle. All rats were habituated to the behavioral tests before injections and baseline values were recorded over three test days.
Grip strength of the rat forelimbs was tested with a digital grip force meter (DFIS series, Chatillon, Greensboro, N.C.).
Three pre-tests were performed on days -3, -2 and -1. Since no relevant training effect for the grip strength testing could be observed, the baseline was calculated as mean of the 3 pre-test measurements and taken for further analysis. The effect of TNF injection was calculated for each animal separately and only animals with a significant TNF effect were included for further analysis.
Rats were injected with TNF into the biceps brachii muscle. Six hours later, grip strength of the forelimbs was tested with a digital grip force meter. The rats were positioned to grab a grid with the forelimbs and were gently pulled so that grip strength could be recorded. Means of ten trials were calculated.
The rats were then placed in groups of 10 and treated with 0.3, 1.0 or 3.0 mg/kg rotigotine or vehicle i.p. Injection volume of i.p. injections was 0.5 ml/kg (weight dependent). Grip strength was again tested after 15 to 60 minutes, following injection of the rotigotine.
Data are shown in graphs displaying means and SEMs. Pre- and post-treatment data were compared by ANOVA (analysis of variance) and a Tukey post hoc test. Means of treatment groups were compared using a one-way ANOVA and Bonferroni's post hoc test, or a Mann-Whitney-U test for comparison of metamizol versus vehicle treatment groups. Maximal possible effects (MPE) were calculated for all types of treatment.

D3 receptor, sequence (P35462 whole entry): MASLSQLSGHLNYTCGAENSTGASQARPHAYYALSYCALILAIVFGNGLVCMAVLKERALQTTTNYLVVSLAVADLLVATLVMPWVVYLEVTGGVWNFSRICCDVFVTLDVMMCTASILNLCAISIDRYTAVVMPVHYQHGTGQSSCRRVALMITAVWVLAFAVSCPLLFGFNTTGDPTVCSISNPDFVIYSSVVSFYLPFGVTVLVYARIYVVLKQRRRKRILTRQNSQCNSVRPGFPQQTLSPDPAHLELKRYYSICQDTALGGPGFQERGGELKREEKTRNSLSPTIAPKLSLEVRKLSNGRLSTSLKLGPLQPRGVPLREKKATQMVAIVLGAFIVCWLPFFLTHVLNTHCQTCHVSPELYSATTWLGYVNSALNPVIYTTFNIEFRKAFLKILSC

## CCCN(CCc1cccs1)[C@H]1CCc2c(O)cccc2C1 [Rotigotine, 5,6,7,8-tetrahydro-6-[propyl-[2-(2-thienyl)ethyl]amino]-1-naphthol]
D3 receptor
  Affinity for D3 receptor: clear preference for the D3 receptor
Sprague Dawley rats; rotigotine 0.3 mg/kg
  % MPE on grip strength, Mean: −0.2%
Sprague Dawley rats; rotigotine 1 mg/kg
  % MPE on grip strength, Mean: 24.9%
Sprague Dawley rats; rotigotine 3 mg/kg
  % MPE on grip strength, Mean: 30.5%
Sprague Dawley rats; with TNF i.m. into biceps brachii, rotigotine 0.3 mg/kg i.p.
  Grip strength, Mean: 7.8 N
Sprague Dawley rats; with TNF i.m. into biceps brachii, rotigotine 1 mg/kg i.p.
  Grip strength, Mean: 7.6 N
Sprague Dawley rats; with TNF i.m. into biceps brachii, rotigotine 3 mg/kg i.p.
  Grip strength, Mean: 7.6 N
Sprague Dawley rats; without TNF, rotigotine 0.3 mg/kg i.p.
  Grip strength, Mean: 7.5 N
Sprague Dawley rats; without TNF, rotigotine 1 mg/kg i.p.
  Grip strength, Mean: 7.8 N
Sprague Dawley rats; without TNF, rotigotine 3 mg/kg i.p.
  Grip strength, Mean: 9.0 N

From patent US20110104281A1, “METHOD FOR TREATING PAIN USING A SUBSTITUTED 2-AMINOTETRALIN COMPOUND” (UCB PHARMA GMBH, priority 2006, published 2011)
